Values quoted from earlier work in patent CN110812364A, “半乳寡糖及其衍生物在作为SGLTs抑制剂中的应用” (Ocean University of China, priority 2019, dated 2020).

Target: T1, SGLT2 (Homo sapiens, UniProt P31639)
T1 sequence (P31639 1-672): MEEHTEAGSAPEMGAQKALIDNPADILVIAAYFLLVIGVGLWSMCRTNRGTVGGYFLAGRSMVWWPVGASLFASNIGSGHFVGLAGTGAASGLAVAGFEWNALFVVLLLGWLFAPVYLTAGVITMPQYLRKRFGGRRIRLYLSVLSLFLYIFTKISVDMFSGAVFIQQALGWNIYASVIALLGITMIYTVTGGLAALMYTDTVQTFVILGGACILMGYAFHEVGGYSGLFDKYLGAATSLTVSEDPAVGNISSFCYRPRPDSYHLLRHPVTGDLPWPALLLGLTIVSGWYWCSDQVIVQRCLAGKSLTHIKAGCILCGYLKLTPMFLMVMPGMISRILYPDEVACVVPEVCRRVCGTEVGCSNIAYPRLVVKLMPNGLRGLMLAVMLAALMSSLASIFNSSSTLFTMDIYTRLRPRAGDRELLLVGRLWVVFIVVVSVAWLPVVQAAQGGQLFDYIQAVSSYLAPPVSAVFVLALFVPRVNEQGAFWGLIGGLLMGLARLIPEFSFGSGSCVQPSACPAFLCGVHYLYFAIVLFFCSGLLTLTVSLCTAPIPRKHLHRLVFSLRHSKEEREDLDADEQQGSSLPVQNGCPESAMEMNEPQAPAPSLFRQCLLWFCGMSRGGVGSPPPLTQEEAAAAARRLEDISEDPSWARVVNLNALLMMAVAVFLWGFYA
Conditions: dual inhibitor of SGLT1 and SGLT2, background section

O=C(CCc1ccc(O)cc1)c1c(O)cc(O)cc1O[C@@H]1O[C@H](CO)[C@@H](O)[C@H](O)[C@H]1O [根皮苷, 根皮苷(phloridzin)]
selectivity for SGLT1 and SGLT2: 选择性较差
